The source of these data is patent US4960769A, “5,6,7,8-tetrahydro-4H-isoxazolo[4,5-c]-azepine derivatives” (H. Lundbeck A/S, priority 1987, dated 1990).

Structures can show the parent of a compound that is named as a salt. Where two headings read alike, the source gives them in different places.

Usually IC50 stands for the concentration that inhibits the measured activity by half.

The conditions of data set [1]: cited from earlier work.
Data set [2] concerns the target central cholinergic receptors. Put plainly: 3H-oxotremorine M binding, rat brain homogenates. The note with it: rat brain homogenate, pH 7.4, 40 min at 30 °C; read-out: Binding IC50, 3H-Oxo-M.
Method: Briefly, rat brains were homogenized in 100 vol (w/v) 10 mM Na,K-phosphate buffer (pH 7.4) and aliquots incubated with ^3 H-oxotremorine M (84.9 Ci/mmol, NEN) alone or in the presence of test compound in a total volume of 1.5 ml for 40 min. at 30° C. The reaction was stopped by adding 5 ml ice-cold buffer and filtered through Whatman GF/B filters soaked previously in 0.1% polyethylenimin (Sigma) for minimum 30 min. The filters were washed once with the same volume of buffer, transferred to scintillation vials and extracted in scintillation fluid (Pico-fluor 15, Packard) for at least two hours before counted in a liquid scintillation spectrometer (Beckman LS 1800). Non-specific binding was estimated at 10 μM atropine and all estimations made in triplicate. At least two displacement curves were made for each compound tested.
The conditions of data set [3]: cited from earlier work. The source holds these as a separate data set.
The conditions of data set [4]: after peripheral administration; cited from earlier work.
The target in data set [5] is T1, central muscarinic M-1 receptors (Rattus norvegicus, UniProt P08482).
T1 sequence (P08482 1-460): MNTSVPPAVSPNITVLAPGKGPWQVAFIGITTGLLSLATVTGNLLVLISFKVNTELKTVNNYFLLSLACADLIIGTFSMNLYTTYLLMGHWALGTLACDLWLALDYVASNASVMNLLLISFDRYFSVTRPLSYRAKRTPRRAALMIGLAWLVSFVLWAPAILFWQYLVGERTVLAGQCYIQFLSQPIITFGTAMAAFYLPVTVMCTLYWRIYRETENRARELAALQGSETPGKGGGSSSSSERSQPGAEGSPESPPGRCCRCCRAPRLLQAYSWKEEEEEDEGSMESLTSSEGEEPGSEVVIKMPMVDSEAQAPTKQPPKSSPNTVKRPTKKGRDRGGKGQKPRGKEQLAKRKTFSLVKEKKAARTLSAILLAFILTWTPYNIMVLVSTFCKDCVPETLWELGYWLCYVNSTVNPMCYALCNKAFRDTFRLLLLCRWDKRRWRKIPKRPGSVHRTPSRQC
Put plainly: biochemical. The note with it: rat brain homogenate, 1.0 nM 3H-pirenzepine, 60 min at 25 °C; read-out: Binding IC50, 3H-Pirenzepine. The method, then:
^3 H-pirenzepine binding was performed essentially as described by Watson et al., 1983, the conditions being very much the same as for ^3 H-oxotremorine binding, except that aliquots were incubated with 1.0 nM ^3 H-pirenzepine for 60 min. at 25° C. and that the reaction was stopped by direct filtration followed by 3 washes with 4 ml buffer.

As to `CC(=O)OCC[N+](C)(C)C` [AcCh, acetylcholine], the “penetration of the blood-brain barrier” value in data set [1] (in vivo) was “do not penetrate the blood-brain barrier (BBB) easily”.
On to `COC(=O)C1=CCCN(C)C1` [Arecoline, methyl 1-methyl-1,2,5,6-tetrahydropyridine-3-carboxylate], for which the IC50 in data set [2] is 1.9 nM. The “penetration of the blood-brain barrier” value in data set [1] (after peripheral administration) is reported as “capable of penetrating the BBB after peripheral administration”. Moreover, in data set [3], the “hydrolysis of the ester group in vivo” value is reported as “very rapidly hydrolyzed in vivo”. Further, the central effects entry in data set [4] was “very weak and frequently negligible central effects”.
On to `CCOc1noc2c1CNCCC2` [Example 4, 3-Ethoxy-5,6,7,8-tetrahydro-4H-isoxazolo[4,5-c]azepine Hydrochloride], for which the IC50 in data set [2] turned out to be 0.49 nM; in data set [5], 11 nM.
In the case of `COc1noc2c1CNCCC2` [Example 5, 3-Methoxy-5,6,7,8-tetrahydro-4H-isoxazolo[4,5-c]azepine Hydrochloride], the results for the 50% inhibitory concentration (IC50) in data set [2] and in data set [5] were 2.8 nM and 248 nM, respectively.
For `CC(C)Oc1noc2c1CNCCC2` [Example 6, 3-Isopropoxy-5,6,7,8-tetrahydro-4H-isoxazolo[4,5-c]azepine Hydrochloride], in that order: 8.3 nM and 5 nM.
On the same counts, the results for `C#CCOc1noc2c1CNCCC2` [Example 9, 3-(2-Propynyloxy)-5,6,7,8-tetrahydro-4H-isoxazolo [4,5-c]azepine Hydrochloride] are 0.34 nM and 16 nM.
With `C#CCOc1noc2c1CNCCC2C` (centres unmarked) [Example 14, 8-Methyl-3-(2-propynyloxy)-5,6,7,8-tetrahydro-4H-isoxazolo 4,5-c azepine, Fumarate], the 50% inhibitory concentration (IC50) was determined as 0.93 nM in data set [2] and 16 nM in data set [5].
On the same counts, the results for `COc1noc2c1CNCC2` [O-Methyl-THPO, reference compound] are 62 nM and 8600 nM.
